From patent US8841312B2, “Fused pyridine, pyrimidine and triazine compounds as cell cycle inhibitors” (Amgen Inc., priority 2007, dated 2014)

What was measured:
[1] = molecular target: Cdk4/CyclinD1 (Homo sapiens (Human), UniProt P11802); test: Cdk4 kinase inhibition assay with recombinant Cdk4/CyclinD1, Rb substrate, [33P]-ATP filter plate; type: biochemical; details: 25 μM ATP, read-out: Cdk 4 IC50
How it was run: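 Recombinant Cdk4/CyclinD1 or Cdk6/CyclinD3 phosphorylated Rb protein with [33P]-ATP for 1 h at room temperature. Protein was TCA-precipitated on filter plates and bound radioactivity counted. IC50 by nonlinear regression.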

[2] = molecular target: Cdk6/CyclinD3 (Homo sapiens (Human), UniProt Q00534); test: Cdk6 kinase inhibition assay with recombinant Cdk6/CyclinD3, Rb substrate, [33P]-ATP filter plate; type: biochemical; details: 25 μM ATP, read-out: Cdk 6 IC50
Cdk6/CyclinD3, sequence (Q00534 whole entry): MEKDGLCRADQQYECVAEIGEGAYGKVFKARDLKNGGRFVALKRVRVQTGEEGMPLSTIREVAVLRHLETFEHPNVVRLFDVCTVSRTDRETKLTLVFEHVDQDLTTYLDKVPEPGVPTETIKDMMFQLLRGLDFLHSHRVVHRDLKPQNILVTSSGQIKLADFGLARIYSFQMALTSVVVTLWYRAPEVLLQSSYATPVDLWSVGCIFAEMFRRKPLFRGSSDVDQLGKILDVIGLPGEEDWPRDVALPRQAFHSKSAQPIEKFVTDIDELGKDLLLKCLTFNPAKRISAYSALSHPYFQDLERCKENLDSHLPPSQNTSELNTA
Cdk6/CyclinD3, sequence (P30281 whole entry partner): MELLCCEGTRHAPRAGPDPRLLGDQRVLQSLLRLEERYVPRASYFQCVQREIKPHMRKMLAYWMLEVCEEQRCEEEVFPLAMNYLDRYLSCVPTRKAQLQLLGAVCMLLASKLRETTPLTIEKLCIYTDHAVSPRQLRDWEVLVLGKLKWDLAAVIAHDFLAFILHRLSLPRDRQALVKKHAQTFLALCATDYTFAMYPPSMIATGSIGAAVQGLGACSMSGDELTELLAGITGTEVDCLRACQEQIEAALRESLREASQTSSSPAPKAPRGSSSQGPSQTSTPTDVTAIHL
Description: The Cdk4 and Cdk6 inhibitory activity of the compounds is measured with a kinase inhibition assay using recombinant Cdk4/CyclinD1 or Cdk6/CyclinD3 protein complexes. The protein substrate used in the assay is the retinoblastoma protein (Rb). The kinase reactions are carried out in a 96-well filter plate (MSDV N6B50, Millipore). […] The mixture is incubated at room temperature for 1 hour and the proteins precipitated with an equal volume of 20% TCA. The plates are washed with 10% TCA according to the manufacturer's instruction and dried at room temperature. The amount of the phosphorylated Rb is determined with a TopCount (PerkinElmer). The IC50 of a compound is determined by nonlinear regression curve fitting using software program Prism 5 (GraphPad Software).

Cdk4/CyclinD1, sequence (P11802 whole entry): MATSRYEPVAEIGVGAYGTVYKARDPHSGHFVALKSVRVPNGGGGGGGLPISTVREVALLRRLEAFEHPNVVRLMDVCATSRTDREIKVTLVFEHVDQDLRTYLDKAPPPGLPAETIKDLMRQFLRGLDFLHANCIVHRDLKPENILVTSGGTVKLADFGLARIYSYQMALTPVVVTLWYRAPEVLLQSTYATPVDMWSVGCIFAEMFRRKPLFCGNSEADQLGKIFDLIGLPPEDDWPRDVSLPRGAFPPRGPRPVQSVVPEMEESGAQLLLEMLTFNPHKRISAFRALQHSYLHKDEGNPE
Cdk4/CyclinD1, sequence (P24385 whole entry partner): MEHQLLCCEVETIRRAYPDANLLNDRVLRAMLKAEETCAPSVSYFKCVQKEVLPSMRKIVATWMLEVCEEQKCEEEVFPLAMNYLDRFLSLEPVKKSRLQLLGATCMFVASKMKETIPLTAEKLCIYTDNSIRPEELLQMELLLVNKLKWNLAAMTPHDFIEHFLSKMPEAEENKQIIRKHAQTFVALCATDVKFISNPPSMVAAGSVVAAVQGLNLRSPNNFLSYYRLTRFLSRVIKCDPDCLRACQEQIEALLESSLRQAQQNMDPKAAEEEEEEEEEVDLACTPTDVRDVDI

Compound | IC50 [1] | IC50 [2]
Cc1cc(N2CCNCC2)cnc1Nc1ncc2c3ccncc3n(C3CCCC3)c2n1 [Example 51, 9-cyclopentyl-N-(3-methyl-5-(1-piperazinyl)-2-pyridinyl)-9H-pyrido[4′,3′:4,5]pyrrolo[2,3-d]pyrimidin-2-amine] | 126 nM | 406 nM
O=C(O)c1ccc(Nc2ncc3c4ccnc(O)c4n(C4CCCC4)c3n2)nc1 [Example 224, 6-((9-cyclopentyl-8-hydroxy-9H-pyrido[4′,3′:4,5]pyrrolo[2,3-d]pyrimidin-2-yl)amino)-3-pyridinecarboxylic acid] | 520 nM | 860 nM
CN(C)C1CCN(c2ccc(Nc3ncc4c5ccncc5n([C@H]5CCC[C@H]5O)c4n3)nc2)CC1 [Example 354] | 580 nM | 830 nM
FCCNC1CCN(c2ccc(Nc3ncc4c5ccncc5n(C5CCCC5)c4n3)nc2)CC1 [Example 467] | 7.2 nM | 21 nM
CNC1CCN(c2ccc(Nc3ncc4c5ccnc(F)c5n(C5CCCC5)c4n3)nc2)CC1 [Example 310] | 5 nM | 13 nM
O[C@H]1CC[C@H](n2c3cnccc3c3cnc(Nc4ccc(N5CCNCC5)cn4)nc32)CC1 [Example 31, 4-[2-(5-piperazin-1-yl-pyridin-2-ylamino)-pyrido[4′,3′:4,5]pyrrolo[2,3-d]pyrimidin-9-yl]-trans-cyclohexanol] | 2.5 nM | 5.9 nM
c1cc2c3cnc(Nc4ccc(NCC5CNC5)nn4)nc3n(C3CCCC3)c2cn1 [Example 97] | 430 nM | 396 nM
OC1CCN(Cc2ccc(Nc3ncc4c5ccncc5n(C5CCCC5)c4n3)nc2)CC1 [Example 215, 1-((6-((9-cyclopentyl-9H-pyrido[4′,3′:4,5]pyrrolo[2,3-d]pyrimidin-2-yl)amino)-3-pyridinyl)methyl)-4-piperidinol] | 4.4 nM | 8.2 nM
c1cc2c3cnc(Nc4ccc(N5CCNCC5)cn4)nc3n(C34CC5CC(CC(C5)C3)C4)c2cn1 [Example 26, (9-Adamantan-1-yl-9H-pyrido[4′,3′:4,5]pyrrolo[2,3-d]pyrimidin-2-yl)-(5-piperazin-1-yl-pyridin-2-yl)-amine] | 1.6 nM | 3.5 nM
CC[C@@H](C)n1c2cnccc2c2cnc(Nc3ccc(N4CCC(NC)CC4)nn3)nc21 [Example 318] | 2.9 nM | 27 nM
CN(C)CCCN(C)c1ccc(Nc2ncc3c4ccncc4n(C4CCCC4)c3n2)nn1 [Example 290] | 35 nM | 85 nM
Cn1c(=O)ccc2c3cnc(Nc4ccc(N5CC[C@@H](O)C5)cn4)nc3n(C3CCCC3)c21 [Example 185, 9-Cyclopentyl-2-((5-((3R)-3-hydroxy-1-pyrrolidinyl)-2-pyridinyl)amino)-8-methyl-8,9-dihydro-7H-pyrido[3′,2′:4,5]pyrrolo[2,3-d]pyrimidin-7-one] | 145 nM | 149 nM
OCC1CCN(c2ccc(Nc3ncc4c5ccncc5n(C5CCCC5)c4n3)nn2)CC1 [Example 103] | 5.6 nM | 2.6 nM
O[C@H]1CCN(c2ccc(Nc3ncc4c5ccnc(F)c5n(C5CCCC5)c4n3)nn2)C1 [Example 311] | 8.6 nM | 24 nM
O=C(O)CN1CCN(Cc2ccc(Nc3ncc4c5ccncc5n(C5CCCC5)c4n3)nc2)CC1 [Example 220, (4-((6-((9-cyclopentyl-9H-pyrido[4′,3′:4,5]pyrrolo[2,3-d]pyrimidin-2-yl)amino)-3-pyridinyl)methyl)-1-piperazinyl)acetic acid] | 1 nM | 3.3 nM
Fc1ccc(-n2c3cnccc3c3cnc(Nc4ccc(N5CCNCC5)cn4)nc32)cc1 [Example 15] | 7.5 nM | 13 nM
CNC1CCN(c2ccc(Nc3ncc4c5ccncc5n(C5CCCC5)c4n3)nn2)CC1 [Example 77] | 3 nM | 11 nM
C[C@@H](O)Cn1c2cnccc2c2cnc(Nc3ccc(N4CC[C@@H](O)C4)cn3)nc21 [Example 358] | 470 nM | 590 nM
CC(C)n1c2cnccc2c2cnc(Nc3ccc(N4CCC(N(C)C)CC4)nn3)nc21 [Example 160, N-(6-(4-(Dimethylamino)-1-piperidinyl)-3-pyridazinyl)-9-(1-methylethyl)-9H-pyrido[4′,3′:4,5]pyrrolo[2,3-d]pyrimidin-2-amine] | 2.5 nM | 4.8 nM
c1ccc2c(c1)c1cnc(Nc3ccc(N4CCNCC4)nn3)nc1n2C1CCCC1 [Example 307] | 11 nM | 8.8 nM
COc1cc2c3cnc(Nc4ccc(N5CCNCC5)cn4)nc3n(C3CCCC3)c2nn1 [Example 202, 9-cyclopentyl-3-methoxy-N-(5-(1-piperazinyl)-2-pyridinyl)-9H-pyrimido[5′,4′:4,5]pyrrolo[2,3-c]pyridazin-7-amine] | 141 nM | 520 nM

Compound | IC50 [1] | IC50 [2]
C1=C(c2ccc(Nc3ncc4c5ccncc5n(C5CCCC5)c4n3)nc2)CCNC1 [Example 256, 9-Cyclopentyl-N-(1′,2′,3′,6′-tetrahydro-3,4′-bipyridin-6-yl)-9H-pyrido[4′,3′:4,5]pyrrolo[2,3-d]pyrimidin-2-amine] | 1.3 nM | 7 nM
N[C@H]1CCN(c2ccc(Nc3ncc4c5ccncc5n(C5CCCC5)c4n3)nn2)C1 [Example 108] | 12 nM | 15.7 nM
c1cc(Nc2ncc3c4sncc4n(C4CCCC4)c3n2)ncc1N1CCNCC1 [Example 168, 4-Cyclopentyl-N-(5-(1-piperazinyl)-2-pyridinyl)-4H-isothiazolo[5′,4′:4,5]pyrrolo[2,3-d]pyrimidin-6-amine] | 10000 nM | 10000 nM
FC(F)(F)CNC1CCN(c2ccc(Nc3ncc4c5ccncc5n(C5CCCC5)c4n3)nn2)CC1 [Example 456] | 110 nM | 380 nM
CC1(C)CN(c2ccc(Nc3ncc4c5ccccc5n(C5CCCC5)c4n3)nn2)CCN1 [Example 299] | 60 nM | 34 nM
c1cc2c3cnc(Nc4ccc(N5CCNCC5)nn4)nc3n(C3CCCC3)c2cn1 [Example 6, 9-cyclopentyl-N-(6-(1-piperazinyl)-3-pyridazinyl)-9H-pyrido[4′,3′:4,5]-pyrrolo[2,3d]pyrimidin-2-amine] | 1.5 nM | 6.6 nM
O[C@H]1CCCN(c2ccc(Nc3ncc4c5ccncc5n(C5CCCC5)c4n3)nn2)C1 [Example 105] | 6.7 nM | 7.1 nM
OCCNC1CCN(c2ccc(Nc3ncc4c5ccncc5n(C5CCCC5)c4n3)nc2)CC1 [Example 458] | 4.8 nM | 5.1 nM
O=C(O)CN1CCN(c2ccc(Nc3ncc4c5ccncc5n(C5CCCC5)c4n3)nn2)CC1 [Example 218, (4-(6-((9-cyclopentyl-9H-pyrido[4′,3′:4,5]pyrrolo[2,3-d]pyrimidin-2-yl)amino)-3-pyridazinyl)-1-piperazinyl)acetic acid] | 1.39 nM | 3.6 nM
O[C@H]1CCN(Cc2csc(Nc3ncc4c5ccncc5n(C5CCCC5)c4n3)n2)C1 [Example 165, (3S)-1-((2-((9-Cyclopentyl-9H-pyrido[4′,3′:4,5]pyrrolo[2,3-d]pyrimidin-2-yl)amino)-1,3-thiazol-4-yl)methyl)-3-pyrrolidinol] | 8.5 nM | 17 nM
c1cc2c3cnc(Nc4ccc(N5CCNCC5)cc4)nc3n(C3CC4CCC3C4)c2cn1 (stereo not drawn) [Example 40, (9-Bicyclo[2.2.1]hept-2-yl-9H-pyrido[4′,3′:4,5]pyrrolo[2,3-d]pyrimidin-2-yl)-(4-piperazin-1-yl-phenyl)-amine] | – | 2.6 nM
C[C@H](O)CNC1CCN(c2ccc(Nc3ncc4c5ccncc5n(C5CCCC5)c4n3)nc2)CC1 [Example 459] | – | 14 nM
C[C@@H](O)CNC1CCN(c2ccc(Nc3ncc4c5ccncc5n(C5CCCC5)c4n3)nc2)CC1 [Example 460] | – | 12 nM
O[C@H]1CCN(c2ccc(Nc3ncc4c5ccnc(F)c5n(C5CCCC5)c4n3)nc2)C1 [Example 186B, (3S)-1-(6-((9-cyclopentyl-8-fluoro-9H-pyrido[4′,3′:4,5]pyrrolo[2,3-d]pyrimidin-2-yl)amino)-3-pyridinyl)-3-pyrrolidinol] | – | 4.8 nM
O[C@@H]1CCN(c2ccc(Nc3ncc4c5ccnc(F)c5n(C5CCCC5)c4n3)nc2)C1 [Example 186A, (3R)-1-(6-((9-cyclopentyl-8-fluoro-9H-pyrido[4′,3′:4,5]pyrrolo[2,3-d]pyrimidin-2-yl)amino)-3-pyridinyl)-3-pyrrolidinol] | – | 2 nM
CN(C)C1CCN(c2ccc(Nc3ncc4c5ccncc5n(C5CCSCC5)c4n3)nn2)CC1 [Example 275, N-(6-(4-(dimethylamino)-1-piperidinyl)-3-pyridazinyl)-9-(tetrahydro-2H-thiopyran-4-yl)-9H-pyrido[4′,3′:4,5]pyrrolo[2,3-d]pyrimidin-2-amine] | 17 nM | –
CNC1CCN(c2ccc(Nc3ncc4c5ccncc5n([C@H](C)CO)c4n3)nc2)CC1 [Example 380] | 261 nM | –
CN(C)C1CCN(c2ccc(Nc3ncc4c5ccncc5n(C5CCS(=O)(=O)CC5)c4n3)nn2)CC1 [Example 279, N-(6-(4-(dimethylamino)-1-piperidinyl)-3-pyridazinyl)-9-(1,1-dioxidotetrahydro-2H-thiopyran-4-yl)-9H-pyrido[4′,3′:4,5]pyrrolo[2,3-d]pyrimidin-2-amine] | 590 nM | –
C[C@H](O)Cn1c2cnccc2c2cnc(Nc3ccc(N4CCNCC4)cn3)nc21 [Example 421] | 77 nM | –
C[C@H](CO)n1c2cnccc2c2cnc(Nc3ccc(N4CC[C@@H](O)C4)nn3)nc21 [Example 389] | 166 nM | –
